The test system of experiment [1] is endocrine progenitor cells. The experiment in a line: BC step 1 screen: flow cytometry of INS, NKX6.1 and GCG expression. Format: cell-based, human. Particulars: added on top of BC step 1 medium comprising DZNEP, Alk5i, Heparin, Nicotinamide; FIG. 3. How it is done:
As a first step towards generating fully functional mature beta cells, we screened for factors to generate maximal numbers of immature INS+/NKX6.1+ cells (BC step 1 screen). […]
Compounds were screened for their ability to induce INS+, NKX6.1+ double positive immature BCs and few GCG positive cells within a 7 days period. Media change was performed daily. Cells were fixed at day 4 and day 7 of BC step 1 and analysed for INS NKX6.1 and GCG expression using flow cytometry (see Table 1 and FIG. 2). Briefly, differentiated endocrine cells were dispersed into single-cell suspension by incubation with TrypLE Express at 37° C. for 10 min. Differentiated endocrine cells were resuspended in 4% paraformaldehyde, washed in PBS followed by incubation with primary antibodies overnight and then secondary antibodies for 1 hour. The differentiated hPSCs co-expressed C-peptide+/NKX6.1+ with few cells expressing the α-cell hormone glucagon (FIG. 2). When quantified by flow cytometry, 48% of the cells co-expressed C-peptide+/NKX6-1 (FIG. 2), more than previously reported with stem cell-derived beta cells (Pagliuca et al., Cell. 2014 Oct. 9; 159(2):428-39. doi: 10.1016/j.cell.2014.09.040; Rezania et al., Nat Biotechnol. 2014 November; 32(11):1121-33. doi: 10.1038/nbt.3033. Epub 2014 Sep. 11).
Hits compounds of Table 2 have been identified in a primary screen.

The test system of experiment [2] is stem cell-derived endocrine progenitor cells. The experiment in a line: BC step 1 medium with or without Nicotinamide: BC FACS phenotype. In kind it is cell-based, human. Particulars: BC step 1 medium with or without 10 mM Nicotinamide, 4 days, then 2 days BC step 2; FIG. 16. How it is done: To evaluate the effect of Nicotinamide, stem cell-derived endocrine progenitor cells were differentiated in BC step 1 medium with or without Nicotinamide, followed by a culturing step in BC step 2 medium.
Cell were differentiated to endocrine progenitors and then subjected to BC step 1 medium for 4 days (BC step 1 medium comprises RPMI1640 with Glutamax, 0.1% Pen/Strep, 12% KOSR, 10 μM Alk5i, 1 μM T3, 1 μM DZNEP, 10 μg/ml heparin, 25 μM DAPT, and with or without 10 mM Nicotinamide).
Cells were then subjected to BC step 2 cell culture medium for 2 days before analysing by FACS. BC step 2 medium consisted of: RPMI1640 with Glutamax, 0.1% Pen/Strep, 12% KOSR, 50 μM GABA, 10 μM Alk5i, 1 μM T3 and 10 μM DZNEP.

Experiment [3] has as its system hPSC-derived beta cells. The experiment in a line: Perfusion assay of dynamic human insulin secretion in vitro. In kind it is cell-based. The procedure: Mature beta cells are functionally defined by their rapid response to elevate glucose. Secretion of human insulin by beta cells at the end of BC step 2 method with BC step 2 medium comprising 50 μM GABA, 10 μM Alk5i, 1 μM T3 was measured as repeated responses to 20 mM glucose±1 μM exendin-4 a GLP1-receptor agonist or ±the anti-diabetic sulfonylurea compound Tolbutamide within a perfusion system.
Briefly, groups of 300 hand-picked, clusters of hESC- or hiPSC-derived cell clusters were suspended with beads (Bio-Rad #150-4124) in plastic chambers of Biorep PERFUSION SYSTEM (Biorep #PERI-4.2). Under temperature and CO2-controlled conditions, the cells were perfused at 0.5 ml min−1 with a Krebs buffer. Prior to sample collection, cells were equilibrated under basal (2 mM glucose) conditions for 1 h. During perfusion cells were exposed to repeated challenges with 20 mM glucose±1 μM exendin-4 or ±100 μM Tolbutamide. At the end of perfusion, cells were exposed to cAMP-elevating agents (dbcAMP) on top of 20 mM glucose. Insulin secretion was measured by human insulin ELISA (Mercodia).

Turning to `C[C@H](NC(=O)Cc1cc(F)cc(F)c1)C(=O)NC(C(=O)OC(C)(C)C)c1ccccc1` (some centres unmarked) [DAPT], the “number of INS+/NKX6.1+ cells” value in experiment [1] is “highest number of INS+/NKX6.1+ cells”.
As for `NC(=O)c1cccnc1` [Nicotinamide], the “BC FACS phenotype” value in experiment [2] is on record as “not affected”.
Regarding `CCCCNC(=O)NS(=O)(=O)c1ccc(C)cc1` [tolbutamide], the “effect on insulin secretion” value in experiment [3] (day 7 of BC step 2, 20 mM glucose ± 100 μM Tolbutamide) is on record as “significant additive effect”.
Dibutyryl-cAMP [dbcAMP]: the “number of INS+/NKX6.1+ cells” value in experiment [1] is reported as “highest number of INS+/NKX6.1+ cells”.
For the compound exendin-4, the “level of insulin secretion in the hPSC-derived beta cells” value in experiment [3] (20 mM glucose ± 1 μM exendin-4) is on record as “increased the level of insulin secretion”.

The values are drawn from patent US20210230554A1, “GENERATION OF FUNCTIONAL BETA CELLS FROM HUMAN PLURIPOTENT STEM CELL-DERIVED ENDOCRINE PROGENITORS” (Novo Nordisk A/S, priority 2018, published 2021).
